Tested on: CD4+ effector memory T cells
Assay type: cell-based, human

PSFYVYSRVKNLNSSRVPDLLV (Severe acute respiratory syndrome coronavirus 2) [SEQ ID NO: 7]
suppression of proliferation and activation of CD4+ effector T cells: Suppressed Proliferation and Activation

— patent publication US20230242591A1, “REGULATORY T CELL EPITOPES AND D[…]-COV-2 ANTIGENS” (EPIVAX, INC., priority 2020, published 2023)
